Our source for the EC50 values is PMC13286569 (eLife, 2026).

One may read the EC50 as the concentration at which the effect is half-maximal.

The assay has as its target T1, DcDop2 (Diaphorina citri, UniProt A0A3Q0INR4).
T1 construct: gene LOC103507230; full ORF (2049 nt, 682 residues) in pcDNA3.1, transiently expressed in CHO-WTA11 cells (Galpha16 and aequorin)
T1 sequence (A0A3Q0INR4 1-682): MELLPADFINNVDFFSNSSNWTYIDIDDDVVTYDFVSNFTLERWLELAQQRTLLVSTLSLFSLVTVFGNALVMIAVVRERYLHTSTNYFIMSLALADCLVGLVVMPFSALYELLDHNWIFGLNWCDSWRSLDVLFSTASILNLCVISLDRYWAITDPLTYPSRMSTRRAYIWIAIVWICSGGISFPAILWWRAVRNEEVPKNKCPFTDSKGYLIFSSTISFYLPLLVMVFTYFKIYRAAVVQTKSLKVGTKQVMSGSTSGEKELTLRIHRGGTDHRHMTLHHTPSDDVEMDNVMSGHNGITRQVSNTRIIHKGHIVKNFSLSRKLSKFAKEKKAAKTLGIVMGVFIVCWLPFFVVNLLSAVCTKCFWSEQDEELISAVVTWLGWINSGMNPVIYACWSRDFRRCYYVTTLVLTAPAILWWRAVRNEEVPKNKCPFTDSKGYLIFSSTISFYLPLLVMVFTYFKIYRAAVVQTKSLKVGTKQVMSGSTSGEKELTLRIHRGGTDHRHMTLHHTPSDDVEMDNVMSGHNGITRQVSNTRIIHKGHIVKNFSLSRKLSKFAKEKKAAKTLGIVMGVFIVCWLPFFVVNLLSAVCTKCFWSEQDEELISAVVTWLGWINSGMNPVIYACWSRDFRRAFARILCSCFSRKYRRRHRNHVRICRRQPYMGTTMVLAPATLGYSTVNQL
Kind of assay: aequorin calcium mobilization luminescence in transfected CHO-WTA11 cells. The assay is classed as cell-based. In general terms: Calcium flux is commonly read through the fluorescence of an indicator in the cells.

In the case of `NCCc1ccc(O)c(O)c1` [DA, dopamine], the concentration giving a half-maximal response (EC50) came out at 4.05 nM.
